# Test results: the SangsterLogP compilation
# Experiment: method code SF-AS, from DOI: 10.1016/0048-3575(91)90045-n
row,logP,Compound
1,3.79,CC(C)COc1cc(NC(=O)NC(=O)c2c(F)cccc2F)c(F)cc1Cl
2,2.88,O=C(NC(=O)c1c(F)cccc1F)Nc1ccc(Cl)c(Cl)c1Cl
3,2.18,O=C(NC(=O)c1c(F)cccc1F)Nc1ccc(Cl)cc1Cl
4,3.24,O=C(NC(=O)c1c(F)cccc1F)Nc1cc(OC(F)(F)F)c(Br)cc1F
5,2.46,O=C(NC(=O)c1c(F)cccc1F)Nc1ccc(I)cc1
6,3.84,Cc1cc(Oc2ncc(C(F)(F)F)cc2Cl)c(C)cc1NC(=O)NC(=O)c1c(F)cccc1F
7,2.9,O=C(NC(=O)c1c(F)cccc1F)Nc1cc(Cl)c(Cl)c(Cl)c1Cl
8,1.46,Cc1ccc(NC(=O)NC(=O)c2c(F)cccc2F)c(C)c1
9,2.69,Cc1ccc(NC(=O)NC(=O)c2c(F)cccc2F)cc1Cl
10,2.2,CCc1ccc(NC(=O)NC(=O)c2c(F)cccc2F)cc1
11,3.17,O=C(NC(=O)c1c(F)cccc1F)Nc1cc(C(F)(F)F)c(Br)cc1F
12,1.98,O=C(NC(=O)c1c(F)cccc1F)Nc1ccc(Cl)cc1C(F)(F)F
13,3.1,CCCCc1ccc(NC(=O)NC(=O)c2c(F)cccc2F)c([N+](=O)[O-])c1
14,1.35,Cc1cccc(NC(=O)NC(=O)c2c(F)cccc2F)c1C
15,1.82,Cc1c(Cl)cccc1NC(=O)NC(=O)c1c(F)cccc1F
16,3,O=C(NC(=O)c1c(F)cccc1F)Nc1ccc(Cl)c(Cl)c1
17,2.57,Cc1cc(NC(=O)NC(=O)c2c(F)cccc2F)ccc1Cl
18,2.18,CSc1cc(Br)ccc1NC(=O)NC(=O)c1c(F)cccc1F
19,2.8,Cc1cc(NC(=O)NC(=O)c2c(F)cccc2F)ccc1Br
20,2.29,O=C(NC(=O)c1c(F)cccc1F)Nc1ccc(Br)cc1
21,3.02,O=C(NC(=O)c1c(F)cccc1F)Nc1cc(C(F)(F)F)c(Cl)cc1F
22,2.19,O=C(NC(=O)c1c(F)cccc1F)Nc1cc(Cl)ccc1Cl
23,3.28,Cc1cc(NC(=O)NC(=O)c2c(F)cccc2F)cc(C)c1Br
24,2.17,Cc1cc(C)cc(NC(=O)NC(=O)c2c(F)cccc2F)c1
25,2.5,Cc1cc(NC(=O)NC(=O)c2c(F)cccc2F)cc(C)c1C
26,3.15,O=C(NC(=O)c1c(F)cccc1F)Nc1cc(Cl)cc(C(F)(F)F)c1F

row,logP,Compound
1,3.1,CCCCc1ccc(NC(=O)NC(=O)c2c(F)cccc2F)c(C)c1
2,1.34,O=C(NC(=O)c1c(F)cccc1F)Nc1ccccc1Br
3,2.03,Cc1cc(Br)ccc1NC(=O)NC(=O)c1c(F)cccc1F
4,4.23,CCCCc1ccc(NC(=O)NC(=O)c2c(F)cccc2F)cc1Br
5,3.24,O=C(NC(=O)c1c(F)cccc1F)Nc1cc(C(F)(F)F)c(Cl)cc1Cl
6,3.51,O=C(NC(=O)c1c(F)cccc1F)Nc1cc(C(F)(F)F)cc(C(F)(F)F)c1Br
7,3.3,CCCCc1ccc(NC(=O)NC(=O)c2c(F)cccc2F)cc1
8,2.24,O=C(NC(=O)c1c(F)cccc1F)Nc1cc(C(F)(F)F)ccc1F
9,2.73,Cc1c(Br)ccc(NC(=O)NC(=O)c2c(F)cccc2F)c1Cl
10,3.27,O=C(NC(=O)c1c(F)cccc1F)Nc1cc(C(F)(F)F)cc(Cl)c1Cl
11,2.48,O=C(NC(=O)c1c(F)cccc1F)Nc1cc(OC(F)(F)F)c(F)cc1F
12,2.02,COc1cc(Br)ccc1NC(=O)NC(=O)c1c(F)cccc1F
13,1.91,O=C(NC(=O)c1c(F)cccc1F)Nc1ccc(Cl)cc1F
14,2.84,CC(C)Oc1cc(NC(=O)NC(=O)c2c(F)cccc2F)c(F)cc1Cl
15,2.69,Cc1c(NC(=O)NC(=O)c2c(F)cccc2F)ccc(Br)c1Cl
16,2.86,O=C(NC(=O)c1c(F)cccc1F)Nc1ccc(Br)c(Cl)c1F
17,3.04,O=C(NC(=O)c1c(F)cccc1F)Nc1cc(Cl)cc(Cl)c1Br
18,1.47,O=C(NC(=O)c1c(F)cccc1F)Nc1ccc(F)cc1
19,2.11,O=C(NC(=O)c1c(F)cccc1F)Nc1cc([N+](=O)[O-])c(Br)cc1F
20,2.2,C#CCOc1cc(NC(=O)NC(=O)c2c(F)cccc2F)c(F)cc1Cl
21,3.64,CCCCc1ccc(NC(=O)NC(=O)c2c(F)cccc2F)cc1C
22,2.34,O=C(NC(=O)c1c(F)cccc1F)Nc1cc(C(F)(F)F)c(F)cc1F
23,4.46,O=C(NC(=O)c1c(F)cccc1F)Nc1ccc(Oc2ncc(C(F)(F)F)cc2Cl)c(Cl)c1Cl
24,2.09,O=C(NC(=O)c1c(F)cccc1F)Nc1cccc(Cl)c1Cl
25,2.27,CCc1cc(Br)ccc1NC(=O)NC(=O)c1c(F)cccc1F
26,2.76,C=CCOc1cc(NC(=O)NC(=O)c2c(F)cccc2F)c(F)cc1Cl

row,logP,Compound
1,1.16,O=C(NC(=O)c1c(F)cccc1F)Nc1ccccc1
2,3.26,O=C(NC(=O)c1c(F)cccc1F)Nc1cc(Cl)cc(C(F)(F)F)c1Br
3,3.33,CCc1cc(NC(=O)NC(=O)c2c(F)cccc2F)ccc1Br
4,3.72,O=C(NC(=O)c1c(F)cccc1F)Nc1cc(C(F)(F)F)cc(C(F)(F)F)c1
5,2.56,O=C(NC(=O)c1c(F)cccc1F)Nc1cccc(C(F)(F)F)c1
6,3.41,O=C(NC(=O)c1c(F)cccc1F)Nc1cc(Br)cc(C(F)(F)F)c1Cl
7,4.52,O=C(NC(=O)c1c(F)cccc1F)Nc1ccc(Oc2ncc(C(F)(F)F)cc2Cl)c(Cl)c1
8,3.27,O=C(NC(=O)c1c(F)cccc1F)Nc1cc(Cl)cc(C(F)(F)F)c1Cl
9,1.17,O=C(NC(=O)c1c(F)cccc1F)Nc1ccccc1C(F)(F)F
10,4.56,O=C(NC(=O)c1c(F)cccc1F)Nc1cc(C(F)(F)F)c(Br)c(C(F)(F)F)c1
11,2.86,O=C(NC(=O)c1c(F)cccc1F)Nc1cc(F)cc(C(F)(F)F)c1Cl
12,1.47,Cc1ccc(C)c(NC(=O)NC(=O)c2c(F)cccc2F)c1
13,3.07,O=C(NC(=O)c1c(F)cccc1F)Nc1c(F)cc(Br)c(C(F)(F)F)c1Br
14,2.22,O=C(NC(=O)c1c(F)cccc1F)Nc1c(F)ccc(C(F)(F)F)c1Br
15,2.64,O=C(NC(=O)c1c(F)cccc1F)Nc1ccc(F)c(C(F)(F)F)c1
16,3.76,O=C(NC(=O)c1c(F)cccc1F)Nc1cc(Cl)c(Cl)c(Cl)c1
17,2.12,Cc1cc(Br)cc(C)c1NC(=O)NC(=O)c1c(F)cccc1F
18,3.39,CCCCc1ccc(NC(=O)NC(=O)c2c(F)cccc2F)c(Br)c1
19,1.73,O=C(NC(=O)c1c(F)cccc1F)Nc1c(F)cc(Br)cc1F
20,1.83,O=C(NC(=O)c1c(F)cccc1F)Nc1cccc(Cl)c1F
21,2.1,Cc1ccc(NC(=O)NC(=O)c2c(F)cccc2F)cc1C
22,3.48,O=C(NC(=O)c1c(F)cccc1F)Nc1ccc(Br)c(OC(F)(F)F)c1
23,3.23,Cc1cc(Oc2ncc(C(F)(F)F)cc2Cl)ccc1NC(=O)NC(=O)c1c(F)cccc1F
24,1.03,O=C(NC(=O)c1c(F)cccc1F)Nc1ccccc1F

row,Compound,logP
1,O=C(NC(=O)c1c(F)cccc1F)Nc1ccc(Cl)c(C(F)(F)F)c1,3.33
2,O=C(NC(=O)c1c(F)cccc1F)Nc1cc(Cl)cc(Cl)c1,3.17
3,O=C(NC(=O)c1c(F)cccc1F)Nc1ccc(Cl)cc1,2.12
4,O=C(NC(=O)c1c(F)cccc1F)Nc1cc(Cl)c(F)c(Cl)c1F,2.9
5,O=C(NC(=O)c1c(F)cccc1F)Nc1cc(Cl)c(Oc2ncc(C(F)(F)F)cc2Cl)c(Cl)c1,5.54
